Assay results as given in the METLIN SMRT retention time set (Domingo-Almenara et al. 2019).

Assay: gradient 5% acetonitrile 3 min, to 50% in 2 min, to 85% in 15 min, held 3 min, 100 µL/min
Settings: column: Zorbax Extend-C18 2.1 x 50 mm; eluents: water / acetonitrile, 0.1% formic acid
How it was run: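 Values are retention times taken from adduct peaks that software picked and an analyst inspected. The pure standards were run as mixtures of ~100 molecules on HPLC linked to a quadrupole time-of-flight mass spectrometer, in positive and negative ionization mode. A Zorbax Extend-C18 column (2.1 × 50 mm, 1.8 μm) was used at 100 μL/min with water and acetonitrile, each including 0.1% formic acid.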

RP-LC retention time [s] | Structure (SMILES)
983 | CCCS(=O)(=O)c1nc2ccc(NS(=O)(=O)c3ccc(F)c(C)c3)cc2s1
616 | CC(C(=O)NC1CCSC1=O)n1nc(-n2cccn2)ccc1=O (centres undefined)
776 | O=C(NCC1CN(c2ccccc2)C(=O)O1)Nc1ccccc1Cl (centres undefined)
562 | Cc1ccc(-c2[nH]ncc2CN)cc1
748 | C[C@@H]1CN(CC(=O)Nc2ccc3c(c2)Cc2cccc(-c4cc(=O)cc(N5CCOCC5)o4)c2S3)C[C@H](C)O1
623 | CSc1cccc(NC(=O)Nc2c(-c3ccncc3)nc3ccccn23)c1
737 | CCN1c2ccccc2C(=O)NC12CCN(C(=O)Nc1ccc3c(c1)OCCO3)CC2
972 | CC1=C(C(=O)Nc2ccc(F)cc2C)C2(CCCCCC2)OC1=O
710 | CCN(CC)C(=O)c1ccc(-c2nc3cc(NS(=O)(=O)c4ccc(F)cc4F)ccc3n2C)cc1
718 | Cc1ccccc1-c1cc(C(N)=O)c2ccccc2n1
835 | Cc1ccc(-c2noc(-c3cc(N4CCN(C)CC4)nc4ccccc34)n2)cc1
669 | Cc1ccc(-n2ncc3c(NCCN(C)C)ncnc32)cc1Cl
923 | O=C(CN1C(=O)C(C(=O)N2CCCC2)Sc2ccccc21)N1CCN(c2cccc(Cl)c2)CC1 (centres undefined)
786 | Cc1nc(NC(=O)Cn2nc3c(cc2=O)CCCCC3)sc1C
670 | O=S(=O)(c1cc(-c2nnc(C3CCCC3)o2)co1)N1CCC(N2CCCCC2)CC1
733 | Cc1ccc(-c2cc3c(=O)n(Cc4noc(CN5CCOCC5)n4)ccn3n2)cc1
927 | O=C(O)c1cc2nc(-c3ccc(Cl)cc3)cc(C(F)(F)F)n2n1
612 | CCN1CCN(C(=O)Nc2cccc(C(=O)OC)c2)c2cccnc21
524 | CCOC(=O)c1ccccc1NC(=O)CSc1ccc(-c2ccco2)nn1
503 | Cc1nc(-c2cccnc2)nc2c1CCC(=O)N2CCN(C)C
693 | CCC(C)OC(=O)C1=C(C)NC(=O)NC1c1ccc(OC)c(O)c1 (centres undefined)
706 | COc1ccc(NC(=O)C2CCN(c3cc(N4CCSCC4)ncn3)CC2)cc1Cl

RP-LC retention time [s] | Structure (SMILES)
1010 | Cc1nc(-c2csc(S(=O)(=O)N3CCCC(C(=O)Nc4ccc(F)c(Cl)c4)C3)c2)no1 (centres undefined)
1030 | CCN1C(=O)C2(CCN(S(=O)(=O)c3cc(F)ccc3OC)CC2)c2ccccc21
590 | OCC1CN(c2ncccn2)CC12CCN(Cc1ccc(Cl)cc1F)CC2 (centres undefined)
807 | COc1ccc(-c2cc3n(n2)CCCN(C(=O)c2cccn2C)C3)cc1
1050 | Cc1ccc(Nc2nc(-c3ccc(Cl)cc3)cs2)nc1
678 | CNC(=O)C1CCCN(c2nc3ncn(CC(=O)Nc4cc(C)ccc4OC)c(=O)c3s2)C1 (centres undefined)
1090 | COc1cc(-c2nc3sc4c(c3c(=O)o2)CCC4)cc(OC)c1OC
868 | COc1cc(C(=O)N2CCC3(CC2)Nc2cc(F)ccc2-n2cccc23)cc(OC)c1OC
1040 | Cc1ccccc1-c1noc(Cn2ccn3nc(-c4ccc5c(c4)OCO5)cc3c2=O)n1
670 | Cc1cccc(-c2nc3cnccn3c2NCCC(=O)NC2CCCC2)c1
855 | COC(=O)c1nnc2c(-c3ccc(F)cc3)c(C)nn2c1C
903 | CCc1cccc(N2C(=O)CN(S(C)(=O)=O)CC2(C)C(=O)NCc2ccc(Cl)cc2)c1 (centres undefined)
962 | CCc1noc(-c2cc(=O)n(CC(=O)Nc3ccccc3OC)c3ccccc23)n1
716 | Cc1nnc(N2CCCC(C(=O)NCc3cccc(F)c3)C2)c2nn(-c3ccccc3)c(C)c12 (centres undefined)
615 | CCc1ccc(N2C(=O)c3c(C(=O)OC)ncn3CC2(C)C(=O)NC2CCCC2)cc1 (centres undefined)
656 | COc1ccc(-c2nc(C)cc(C)c2CNS(=O)(=O)c2cccc(OC)c2)cc1
1230 | CCn1c(C(=O)Nc2cc(C)ccc2C)cc2sc(Cl)cc21
774 | Cc1ccc(Nc2c(-c3ccccc3O)nc3ccc(C)cn23)cc1
789 | CCCc1noc(-c2ccnc(-n3cnc(C(=O)N4CCCC4)c3)c2)n1
712 | O=C(Nc1nnc(C2CC(=O)N(c3ccc(F)cc3)C2)o1)c1ccccc1Cl (centres undefined)
851 | CCOc1ccc(NC(=O)Cn2ccc3ccc(-c4nnc(CC)o4)cc32)cc1
789 | O=C(c1ccccc1Cl)N1CCN(c2cc(-c3cccs3)[nH]n2)CC1

RP-LC retention time [s] | Structure (SMILES)
684 | CC1CCN(CC2CCCCCN2C(=O)Nc2ccc3c(c2)OCCO3)CC1 (centres undefined)
895 | COc1ccc(OC)c(NC(=O)N2CCC(n3c(C(F)(F)F)nc4cccnc43)CC2)c1
804 | Cc1ccc(NC(=O)C2CCN(c3nc(C4CCC4)nc4csc(C)c34)CC2)c(C)c1
768 | O=C(O)c1cn(-c2ccc3c(c2)CCC3)nn1
583 | CCCS(=O)(=O)N1CCC(Cc2nc(-c3cccnc3)n[nH]2)C1 (centres undefined)
792 | O=C(Nc1nnc(-c2cc3ccccc3o2)o1)c1ccc([N+](=O)[O-])o1
896 | Cc1cc(F)ccc1NC(=O)CN1C(=O)C2CCCCN2c2ccc(S(=O)(=O)N(C)C)cc21 (centres undefined)
738 | CCNC(=O)C1CCCN(c2nc3ncn(CC(=O)Nc4ccc(C)c(Cl)c4)c(=O)c3s2)C1 (centres undefined)
810 | Cc1ccc(CNC(=O)CN2CCN(Cc3cccc(Cl)c3)C2=O)o1
691 | COCC(=O)Nc1nc(-c2ccc3c(c2)NC(=O)C(C)O3)cs1 (centres undefined)
992 | Cn1nc(-c2nnc(-c3ccccc3)o2)c2c1CCN(S(=O)(=O)c1ccc(Cl)cc1)C2
810 | Cc1ccc(C2=NC3(CCN(C(=O)c4cccs4)CC3)ON2)cc1
721 | CC(C)c1noc(-c2cccnc2N2CCCN(Cc3c(F)cccc3Cl)CC2)n1
717 | Cc1cccc2nc(-c3cccc(Cl)c3)c(Nc3ccc4c(c3)OCCO4)n12
787 | Cc1cc(C)n(-c2ccccc2Cl)c(=O)c1C(=O)O
996 | Cc1ccc(NS(=O)(=O)c2ccc(-c3c(C)noc3C)cc2)cc1C
869 | O=C(Cc1csc2nc(-c3cccc(Br)c3)cn12)NCc1ccc2c(c1)OCO2
672 | COc1cc2c(cc1OC)C(=O)Cc1ccc3c(c1CN(C)CC2)OCO3
656 | O=C(NCC1CCCO1)C1CCCN(c2ncnc3c2oc2ccccc23)C1 (centres undefined)
784 | O=C(c1ccc(F)cc1F)N1CCN(c2cc(-c3cccs3)[nH]n2)CC1
632 | O=C(Nc1nc(C(=O)N2CCN(c3ncccn3)CC2)co1)c1ccccc1
828 | Cc1ccc(N2CCC(NC(=O)c3ccc(F)cc3)C2=O)cc1C (centres undefined)

RP-LC retention time [s] | Structure (SMILES)
839 | NC(=O)c1c(NC(=O)C2CCCN(C(=O)c3ccc4c(c3)OCCO4)C2)sc2c1CCCC2 (centres undefined)
810 | CC1(C(=O)NCc2ccccc2)CCCN(C(=O)NCc2ccccc2)C1 (centres undefined)
725 | O=C(Cn1nc2c3ccc(F)cc3ncn2c1=O)Nc1ccccc1Cl
1340 | COC(=O)c1ccc2c(=O)n(-c3ccc(C)cc3)c(N3CCCCCC3)nc2c1
1170 | Cc1ccc(-c2nc(Cn3c(C)nc4onc(C)c4c3=O)c(C)o2)cc1
768 | N#Cc1ccc(C(=O)NC2CC(=O)N(Cc3ccccc3)C2)cc1 (centres undefined)
1030 | O=C1CC(c2nc(-c3cccc(Cl)c3)no2)CN1c1ccc(F)cc1 (centres undefined)
1030 | CCCn1c(=O)sc2cc(S(=O)(=O)N3CCC(C(=O)Nc4ccc(C)c(C)c4)CC3)ccc21
1260 | CC1CCC(NC(=O)c2cc3sccc3n2Cc2ccc(F)cc2)CC1 (centres undefined)
582 | CC1CCCCN1CCNC(=O)C1CCN(c2nc3cccnc3s2)CC1 (centres undefined)
696 | Cc1cc(C)c2c(n1)SCCN2C(=O)CCC(=O)NCc1ccc(Cl)cc1
1310 | Cc1ccc(S(=O)(=O)c2cnc(N3CCN(c4cc(C)ccc4C)CC3)nc2N)cc1
644 | CC(C(=O)NCCCN1CCOCC1)n1c(=O)c(C(F)(F)F)nc2ccccc21 (centres undefined)
802 | Cc1cc(NC(=O)C2CCN(S(=O)(=O)c3cn(C)cn3)CC2)ccc1Br
803 | Cc1ccc(N2CCC(NC(=O)NC(C)(C)C)C2=O)cc1C (centres undefined)
722 | Cn1cc(CCNC(=O)Nc2ccccc2Br)c2cccnc21
641 | O=c1[nH]c2ccc(NCc3ccccc3Cl)cc2[nH]1
663 | CN(C)c1nc2ncn3c(=O)n(CC(=O)NC4CCCCC4)nc3c2s1
614 | CCC(=O)Nc1ccc(-n2cnc(C(=O)NCC3CCCO3)c2)nc1 (centres undefined)
1100 | Cc1nc2cc(-c3noc(-c4ccc(F)c(F)c4)n3)ccc2o1
917 | O=c1c2nnc3c(-c4ccccc4)cnn3c2ccn1CCc1c[nH]c2ccccc12

Structure (SMILES) | RP-LC retention time [s]
COc1ccc2c(c1)C1(CCN(C(=O)CC(C)(C)C)C1)C(=O)N2 (centres undefined) | 725
COc1ncccc1CNC(=O)c1nn(C)c2ccccc12 | 798
